Results on eight compounds are retold here after patent US20210149304A1, “PHOTOSENSITIVE RESIN COMPOSITION, CURED FILM, ELEMENT COMPRISING CURED FILM, ORGANIC EL DISPLAY DEVICE COMPRISING CURED FILM, METHOD FOR PRODUCING CURED FILM, AND METHOD FOR PRODUCING ORGANIC EL DISPLAY DEVICE” (TORAY INDUSTRIES, INC., priority 2017, published 2021).

A short description of the first series: physchem.
Conditions: not given
As for the experimental part:
The acid dissociation constant (pKa) is a logarithmic value of the inverse number of the acid dissociation constant pKa in a dilute aqueous solution at 25° C. In cases of multistep dissociation, the dissociation constant in the first step (that is, pKa1) is employed.
In the compound (E2) having a phenolic hydroxyl group indicating an acid dissociation constant pKa of 6.0 to 9.5 at 25° C., the acid dissociation constant (pKa) is a logarithmic value of the inverse number of the acid dissociation constant in a dilute aqueous solution at 25° C. In cases of multistep dissociation, the dissociation constant in the first step (that is, pKa1) is employed. […] The acid dissociation constant pKa is preferably not less than 6.3, more preferably not less than 6.6, still more preferably not less than 7.0.
Compound `O=C(c1ccc(O)cc1)c1ccc(O)cc1` [E(iii), 4,4′-dihydroxybenzophenone] came in with a pKa of 7.7.
For the compound `Cc1cc(CCC(=O)OCC(C)(C)C2OCC3(CO2)COC(C(C)(C)COC(=O)CCc2cc(C)c(O)c(C(C)(C)C)c2)OC3)cc(C(C)(C)C)c1O` (stereo not drawn) [AO-80, 3,9-bis[1,1-dimethyl-2-[(3-tert-butyl-4-hydroxy-5-methylphenyl)propionyloxy]ethyl]-2,4,8,10-tetraoxaspiro[5.5]undecane], the pKa is 12.
On the same count and under the same terms, under `Cc1cc(O)c(C(C)(C)C)cc1C(C)CC(c1cc(C(C)(C)C)c(O)cc1C)c1cc(C(C)(C)C)c(O)cc1C` (stereo not drawn) [AO-30, 1,1,3-tris(2-methyl-4-hydroxy-5-tert-butylphenyl)butane] stands 11.6; under `Oc1ccc(C(F)(F)F)cc1` [E(v), 4-(trifluoromethyl)phenol], 8.5.
For the compound `Oc1ccc(C(c2ccc(O)cc2)(C(F)(F)F)C(F)(F)F)cc1` [E(i), bisphenol AF], the pKa came to 8.7 and the “pKa (acid dissociation constant)” value was 8.7.
Take `CC(c1ccc(O)cc1)(c1ccc(O)cc1)c1ccc(O)cc1` [E(vi), 1,1,1-tris(4-hydroxyphenyl)ethane]: the pKa was 10.
On to `O=C(c1ccccc1O)c1ccccc1O` [E(iv), 2,2′-dihydroxybenzophenone], for which the pKa is 7.3.

Still in this series, the particulars now being: at 25° C., dilute aqueous solution, first step pKa1.
On to `O=S(=O)(c1ccc(O)cc1)c1ccc(O)cc1` [E(ii), bisphenol S], for which the “pKa (acid dissociation constant)” value worked out at 7.6.

For orientation: pKa means the negative logarithm of the acid dissociation constant. A low value points to a group that gives up its proton readily.
